From ChEMBL document CHEMBL6103668, “In-Silico Screening-Based Discovery of New Natural eEF2K Inhibitors with Neuritogenic Activity” (ACS Med Chem Lett, 2025)

How the values were obtained:
[1] = system: HT-22; assay: Cytotoxicity against mouse HT-22 cells assessed as cell viability at 1.25 to 5 uM incubated for 24 hrs by CCK8 assay; assay type: toxicity, cell-based; conditions: ht-22, 24 h, dose 1.25-5 µM
[2] = system: N2a; assay: Induction of neuronal differentiation in mouse Neuro2a cells assessed as neurite elongation at 5 uM incubated for 48 hrs by DAPI staining based fluorescence microscopic analysis; assay type: functional, cell-based
[3] = system: N2a; assay: Cytotoxicity against mouse Neuro2a cells assessed as cell viability at 1.25 to 5 uM incubated for 24 hrs by CCK8 assay; assay type: toxicity, cell-based; conditions: dose 1.25-5 µM
[4] = system: N2a; assay: Induction of neuronal differentiation in mouse Neuro2a cells assessed as neurite formation at 5 uM incubated for 48 hrs by DAPI staining based fluorescence microscopic analysis; assay type: functional, cell-based

Row | SMILES | Activity [1] | also measured
1 | OC[C@H]1O[C@@H](Oc2c(O)cc(O)cc2[C@@H]2[C@@H](c3ccc(O)cc3)[C@H](c3ccc(O)cc3)[C@H]2c2cc(O)cc(O)c2O[C@@H]2O[C@H](CO)[C@@H](O)[C@H](O)[C@H]2O)[C@H](O)[C@@H](O)[C@@H]1O | Non-toxic | 
2 | C[N+](C)(C)[C@H](Cc1c[nH]c2ccccc12)C(=O)[O-] [HYPAPHORINE] | Non-toxic | 
3 | COc1cc([C@@H]2Oc3c(OC)cc(CCCO[C@@H]4O[C@H](CO)[C@@H](O)[C@H](O)[C@H]4O)cc3[C@H]2CO)ccc1O | Non-toxic | 
4 | C=C(c1[nH]c2ccccc2c1CN1C/C(=C/C)[C@@H]2CC(=O)c3[nH]c4ccccc4c3C[C@H]1C2C(=O)OC)[C@H]1CCN(C)C/C1=C\C (stereo partly specified) | Non-toxic | Activity [2]: Active; Significant Efficacy Observed; Activity [3]: Toxic; Activity [4]: Active; Significant Efficacy Observed
5 | COc1ccc([C@@H]2c3cc(OC)c(O)cc3C[C@@H](C)[C@H]2C)cc1O | Non-toxic | 
6 | CC1=CC(=O)C[C@](C)(CO[C@@H]2O[C@H](CO)[C@@H](O)[C@H](O)[C@H]2O)[C@@]1(O)/C=C/C(C)=C/C(=O)O | Non-toxic | 
7 | COC(=O)[C@@H](Cc1ccc(O)c(O)c1)OC(=O)/C=C/c1ccc(OC)c(O)c1 | Non-toxic | 
8 | O=C(O)C1=CC[C@@H]2C(C(=O)O)=CO[C@@H](O[C@@H]3O[C@H](CO)[C@@H](O)[C@H](O)[C@H]3O)[C@H]12 [IXOSIDE] | Non-toxic | 
9 | O=c1cc(-c2ccccc2)oc2cc(O[C@@H]3O[C@H](CO[C@@H]4O[C@H](CO)[C@@H](O)[C@H](O)[C@H]4O)[C@@H](O)[C@H](O)[C@H]3O)c(O)c(O)c12 | Non-toxic | 
10 | O=c1c(O[C@@H]2O[C@H](CO)[C@@H](O)[C@H](O)[C@H]2O)c(-c2ccc(O)c(O)c2)oc2cc(O)cc(O)c12 [ISOQUERCETIN] | Non-toxic | Activity [2]: Active; Significant Efficacy Observed; Activity [3]: Toxic; Activity [4]: Active; Significant Efficacy Observed
11 | O[C@H]1CC[C@H]2CN3CCc4c([nH]c5ccccc45)[C@@H]3C[C@@H]2C1 | Non-toxic | 
12 | C[C@@H]1CC[C@]2(C(=O)O)CC[C@]3(C)C(=CC[C@@H]4[C@@]5(C)CC[C@H](O[C@@H]6O[C@H](C(=O)O)[C@@H](O)[C@H](OS(=O)(=O)O)[C@H]6O)[C@@](C)(CO)[C@@H]5CC[C@]43C)[C@@H]2[C@]1(C)O | Non-toxic | 
13 | C[C@](O)(CC(=O)O)CC(=O)OC[C@H]1O[C@@H](OCc2ccccc2)[C@H](O)[C@@H](O)[C@@H]1O | Non-toxic | 
14 | C[C@@H]1O[C@@H](OC[C@H]2O[C@@H](Oc3c(-c4ccc(O)cc4)oc4cc(O)cc(O)c4c3=O)[C@H](O)[C@@H](O)[C@@H]2O)[C@H](O)[C@H](O)[C@H]1O [NICOTIFLOROSIDE] | Non-toxic | 
15 | COc1cc2oc(-c3ccc(O)cc3)cc(=O)c2c(O)c1[C@@H]1O[C@H](CO)[C@@H](O)[C@H](O)[C@H]1O[C@@H]1O[C@H](CO)[C@@H](O)[C@H](O)[C@H]1O | Non-toxic | 
16 | O=C1c2c(O)cc(O[C@@H]3O[C@H](CO)[C@@H](O)[C@H](O)[C@H]3O)cc2O[C@]1(O)Cc1ccc(O)cc1 | Non-toxic | 
17 | COc1cc([C@H](O)[C@H](CO)Oc2c(OC)cc([C@H](O)[C@H](O)CO)cc2OC)ccc1O (mixture of isomers) | Non-toxic | 
18 | O=C1c2c(O)cc(O)cc2O[C@H](c2cc(O)cc(O)c2)[C@H]1O | Non-toxic | 
19 | C=C[C@H]1[C@H](O[C@@H]2O[C@H](CO)[C@@H](O)[C@H](O)[C@H]2O)OC=C(C(=O)O)[C@H]1CC(=O)O | Non-toxic | 
20 | COc1cc(O)c(C(=O)CC(C)C)c2c1[C@@H]1C[C@H](C(C)C)C=C[C@]1(C)O2 | Non-toxic | 
21 | O=c1c(-c2ccc(O)cc2)coc2c([C@@H]3O[C@H](CO)[C@@H](O)[C@H](O)[C@H]3O)c(O)ccc12 [PUERARIN] | Non-toxic | 
22 | C[C@@H]1O[C@@H](Oc2ccc(CNC(=S)NCc3ccc(O[C@@H]4O[C@@H](C)[C@H](O)[C@@H](O)[C@H]4O)cc3)cc2)[C@H](O)[C@H](O)[C@H]1O | Non-toxic | 
23 | CC[C@H](CC[C@@H](C)[C@H]1CC[C@H]2[C@@H]3CC=C4C[C@@H](O[C@@H]5O[C@H](CO)[C@@H](O)[C@H](O)[C@H]5O)CC[C@]4(C)[C@H]3CC[C@]12C)C(C)C [SITOGLUSIDE] | Non-toxic | 
24 | O=C(O)[C@H]1O[C@@H](O[C@@H]2[C@@H](O)[C@@H](O)CO[C@H]2c2c(O)cc3oc(-c4ccc(O)c(O)c4)cc(=O)c3c2O)[C@H](O)[C@@H](O)[C@H]1O | Non-toxic | 
25 | O=C(O)[C@H]1O[C@@H](O[C@@H]2[C@@H](O)[C@H](O)[C@@H](CO)O[C@H]2c2c(O)cc3oc(-c4ccc(O)c(O)c4)cc(=O)c3c2O)[C@H](O)[C@@H](O)[C@H]1O | Non-toxic | 
